Measurements as given in patent publication US6251885A, “Cytotrienins, process for preparing the same and anti-tumor agent” (The Institute of Physical and Chemical Research, priority 1996, dated 2001).
≈ marks a conversion by molar mass, not a printed value.

Assays:
[1] = test system: Staphylococcus aureus; assay: Antimicrobial activity, agar dilution method; assay type: cell-based; details: bouillon medium, 37° C., 1 day
[2] = test system: Escherichia coli BE1186; assay: Antimicrobial activity, agar dilution method; assay type: cell-based; details: bouillon medium, 37° C., 1 day
Procedure: Antimicrobial activity of cytotrienins I, II, III and IV
Cytotrienins I, II, III and IV were assayed by the agar dilution method in bouillon medium (examined microorganism; bacteria, 37° C., 1 day) and Sabouraud's medium (examined microorganism: fungus, 28° C., 2 days).

[3] = test system: v-src^ts -NRK cell; assay: Inhibition of v-src^ts-NRK cell cycle (progress of S phase), flow cytometry; note: key: +: weakly inhibits the progress of S; + +: inhibits the progress of S phase; + + +: strongly inhibits the progress of S phase; assay type: cell-based, rat; details: downshift 39° C. to 32° C., 18 hours
Procedure: Inhibitory activity for cell cycle of cytotrienins I, II, III and IV.
Generally cell divides and proliferates in accordance with a cell cycle including a series of phases such as M phase, G1 phase, S phase and G2 phase. If something happens in the control mechanism of cell cycle, homeostasis breaks and possibility of suffering from cancer or immune disease would increase.
When v--src^ts -NRK cell is cultured at non-permissive temperature (39° C.), the cell cycle stops at G0/G1 phase and if the temperature is downshifted to permissive temperature (32° C.), the cell advances to S phase and then repeats the proliferation. A series of diluted cytotrienin I, II, III and IV were added simlutaneously with the downshift and, after 18 hours, the advancement of cell cycle to S phase was analyzed by flow cytometry.

[4] = test system: Candida albicans; assay: Antimicrobial activity, agar dilution method; assay type: cell-based; details: Sabouraud's medium, 28° C., 2 days
[5] = test system: HL-60; assay: Inhibition of proliferation of cancer cells (MTT), HL-60; assay type: cell-based; details: HL-60 (human acute promyelogenic leukemia cells), 17 hours
Procedure: (§1) Inhibitory activity for proliferation of cancer cells of cytotrienins I, II, III and IV.
(§2) Human leukocyte cells K562 and HL-60 were incubated on PRM 1640 medium (comprising 10% of bovine serum) in a culture chamber saturated with 5% carbon dioxide and steam. To the medium was added a series of diluted cytotrienin I, II, III and IV. After 17 hours, MTT reagent was added and growth was measured.
HL-60: Human acute promyelogenic leukemia cells

[6] = test system: Pseudomonas aeruginosa; assay: Antimicrobial activity, agar dilution method; assay type: cell-based; details: bouillon medium, 37° C., 1 day
[7] = test system: v-src^ts -NRK cell; assay: Activity to revert v-src^ts-NRK cell to normal morphology; assay type: cell-based, rat; details: 32° C., 18 hours; note: key: +: weakly induce normal morphology; + +: induce normal morphology; + + +: highly induce normal morphology
Procedure: Activity of cytotrienins I, II, III and IV to revert v-src^ts -NRK cell (rat renal cell infected with temperature-sensitive Rous sarcoma virus) to normal morphology.
Many oncogenes encode tyrosine kinase. Among them, v-src is believed to encode non-receptor type tyrosine kinase to induce the cell to transformed morphology.
V-src^ts -NRK cell is typically cultured on Eagle's MEM medium containing 10% of bovine serum at 32° C. in a culture chamber which is saturated with 5% of carbon dioxide and steam. At the permissive temperature (32° C.), a series of diluted cytotrienin I, II, III and IV were added. After 18 hours, inducibility to normal morphology was analyzed.

[8] = test system: K-562; assay: Inhibition of proliferation of cancer cells (MTT), K-562; assay type: cell-based; details: 17 hours; for Inhibitory effect on proliferation, IC50 value (concentration to inhibit 50% of proliferation): K-562 (human chronic myelogenic leukemia cells)
Procedure: as §1, §2
K562: Human chronic myelogenic leukemia cells

[9] = test system: Chlorella vulgaris; assay: Antimicrobial activity, agar dilution method; assay type: cell-based
[10] = test system: Pyricularia oryzae; assay: microbe, parasite or virus in culture; assay type: cell-based; details: for minimum inhibitory concentration (MIC): Sabouraud's medium, 28° C., 2 days
[11] = 24 h, read-out: minimum inhibitory concentration (MIC)
[12] = 48 h, read-out: minimum inhibitory concentration (MIC)

Compound	Inhibition effect on v-src^ts -NRK cell cycle ([3]; 0.03 μg/ml)	Inhibition effect on v-src^ts -NRK cell cycle ([3]; 0.1 μg/ml)	Inhibition effect on v-src^ts -NRK cell cycle ([3]; 0.3 μg/ml)	Inhibition effect on v-src^ts -NRK cell cycle ([3]; 1 μg/ml)	Inhibition effect on v-src^ts -NRK cell cycle ([3]; 3 μg/ml)	reversion activity to induce v-src^ts -NRK cell to normal morphology ([7]; 0.1 μg/ml)	reversion activity to induce v-src^ts -NRK cell to normal morphology ([7]; 0.3 μg/ml)	reversion activity to induce v-src^ts -NRK cell to normal morphology ([7]; 1 μg/ml)	reversion activity to induce v-src^ts -NRK cell to normal morphology ([7]; 3 μg/ml)	reversion activity to induce v-src^ts -NRK cell to normal morphology ([7]; 10 μg/ml)	minimum inhibitory concentration (MIC) [1] [µg/mL]	minimum inhibitory concentration (MIC) [2] [µg/mL]	minimum inhibitory concentration (MIC) [4] [µg/mL]	Inhibitory effect on proliferation, IC50 value (concentration to inhibit 50% of proliferation) [5] [µg/mL]	minimum inhibitory concentration (MIC) [6] [µg/mL]	Inhibitory effect on proliferation, IC50 value (concentration to inhibit 50% of proliferation) [8] [µg/mL]	minimum inhibitory concentration (MIC) [9] [µg/mL]	minimum inhibitory concentration (MIC) [10] [µg/mL]	also measured
COC1C=CC=CC=CCC(OC(=O)C2(NC(=O)C3=CCCCC3)CC2)C(C)C(O)C(C)=CCCc2cc(O)cc(c2O)NC(=O)C1 (centres unmarked) [Cytotrienin I, cytotrienin I]	+	+ +	+ + +	+ + +	+ + +	+	+ +	+ + +	+ + +	+ + +	–	–	–	–	–	–	–	–	MIC [1, 11]: > 100 µg/mL; MIC [2, 11]: > 100 µg/mL; MIC [4, 12]: > 100 µg/mL; IC50 ([5]; read-out: Inhibitory effect on proliferation, IC50 value (concentration to inhibit 50% of proliferation)): 0.005 µg/mL (≈ 0.00771 µM); MIC [6, 11]: > 100 µg/mL; IC50 ([8]; K562, K-562 (human chronic myelogenic leukemia cells), read-out: Inhibitory effect on proliferation, IC50 value (concentration to inhibit 50% of proliferation)): 0.02 µg/mL (≈ 0.0308 µM); MIC ([9]; read-out: minimum inhibitory concentration (MIC)): > 100 µg/mL; MIC [10, 12]: 12.5 µg/mL (≈ 19.3 µM)
COC1C=CC=CC=CCC(OC(=O)C2(NC(=O)C3CCCCC3)CC2)C(C)C(O)C(C)=CCCc2cc(O)cc(c2O)NC(=O)C1 (centres unmarked) [Cytotrienin II, cytotrienin II]	+	+ +	+ + +	+ + +	+ + +	+	+	+ + +	+ + +	+ + +	> 100	> 100	> 100	0.005	> 100	0.005	> 100	12.5 (≈ 19.2 µM)	–
COC1C=CC=CC=CCC(OC(=O)C2(NC(=O)C3=CCCCC3)CC2)C(C)C(O)C(C)=CCCC2=CC(=O)C=C(NC(=O)C1)C2=O (centres unmarked) [Cytotrienin III, cytotrienin III]	+ +	+ + +	+ + +	+ + +	+ + +	+ +	+ + +	+ + +	+ + +	+ + +	> 100	> 100	> 100	0.001	> 100	0.005	> 100	12.5 (≈ 19.3 µM)	–
COC1C=CC=CC=CCC(OC(=O)C2(NC(=O)C3CCCCC3)CC2)C(C)C(O)C(C)=CCCC2=CC(=O)C=C(NC(=O)C1)C2=O (centres unmarked) [Cytotrienin IV, cytotrienin IV]	+ +	+ + +	+ + +	+ + +	+ + +	+ +	–	+ + +	+ + +	+ + +	> 100	> 100	> 100	0.001	> 100	0.001	> 100	12.5 (≈ 19.3 µM)	–
